Assay: MALDI-TOF screening of Ni^2+ dependent hydrolysis in a combinatorial peptide library
Type: physicochemical
Conditions: CH3CO-Gly-Ala-Ser-X-His-Z-Lys-Phe-Leu-NH2 library, Ni^2+ 2 mM, pH 8.2, 10 mM Tris, score=24/tm
Summary of the method: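 Ni2+ 2 mM, peptide pool 1 mM (total), 10 mM Tris pH 8.2; 37 °C and 45 °C in parallel; MS aliquots at 2/4/6/8 h; products detected visually. X: all proteinogenic residues except Asp, Glu, Cys; Z: all except Cys.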

Row | Substance | hydrolysis score from MALDI-TOF screening (37° C.) | hydrolysis score from MALDI-TOF screening (45° C.)
1 | Ac-GASRHMKFL-NH2 [SRHM] | 3 (a score of 3 for detection at 8 hours) | 3 (a score of 3 for detection at 8 hours)
2 | Ac-GASRHNKFL-NH2 [SRHN] | 0 (a score of 0 if no trace of the product of hydrolysis was seen after 8 hours of incubation) | 0 (a score of 0 if no trace of the product of hydrolysis was seen after 8 hours of incubation)
3 | Ac-GASRHPKFL-NH2 [SRHP] | 0 (a score of 0 if no trace of the product of hydrolysis was seen after 8 hours of incubation) | 0 (a score of 0 if no trace of the product of hydrolysis was seen after 8 hours of incubation)
4 | Ac-GASRHQKFL-NH2 [SRHQ] | 0 (a score of 0 if no trace of the product of hydrolysis was seen after 8 hours of incubation) | 0 (a score of 0 if no trace of the product of hydrolysis was seen after 8 hours of incubation)
5 | Ac-GASRHRKFL-NH2 [SRHR] | 4 (a score of 4 for detection at 6 hours) | 12 (a score of 12, if it was seen to be partially hydrolysed at 2 hours)
6 | Ac-GASRHSKFL-NH2 [SRHS] | 3 (a score of 3 for detection at 8 hours) | 4 (a score of 4 for detection at 6 hours)
7 | Ac-GASRHTKFL-NH2 [SRHT] | 0 (a score of 0 if no trace of the product of hydrolysis was seen after 8 hours of incubation) | 3 (a score of 3 for detection at 8 hours)
8 | Ac-GASRHVKFL-NH2 [SRHV] | 6 (a score of 6 for detection at 4 hours) | 12 (a score of 12, if it was seen to be partially hydrolysed at 2 hours)
9 | Ac-GASRHYKFL-NH2 [SRHY] | 4 (a score of 4 for detection at 6 hours) | 6 (a score of 6 for detection at 4 hours)
10 | Ac-GASSHAKFL-NH2 [SSHA] | 0 (a score of 0 if no trace of the product of hydrolysis was seen after 8 hours of incubation) | 3 (a score of 3 for detection at 8 hours)
11 | Ac-GASSHDKFL-NH2 [SSHD] | 0 (a score of 0 if no trace of the product of hydrolysis was seen after 8 hours of incubation) | 3 (a score of 3 for detection at 8 hours)
12 | Ac-GASSHEKFL-NH2 [SSHE] | 0 (a score of 0 if no trace of the product of hydrolysis was seen after 8 hours of incubation) | 3 (a score of 3 for detection at 8 hours)
13 | Ac-GASSHFKFL-NH2 [SSHF] | 3 (a score of 3 for detection at 8 hours) | 3 (a score of 3 for detection at 8 hours)
14 | Ac-GASSHGKFL-NH2 [SSHG] | 0 (a score of 0 if no trace of the product of hydrolysis was seen after 8 hours of incubation) | 3 (a score of 3 for detection at 8 hours)
15 | Ac-GASSHHKFL-NH2 [SSHH] | 0 (a score of 0 if no trace of the product of hydrolysis was seen after 8 hours of incubation) | 3 (a score of 3 for detection at 8 hours)
16 | Ac-GASSHIKFL-NH2 [SSHI] | 6 (a score of 6 for detection at 4 hours) | 6 (a score of 6 for detection at 4 hours)

Row | Substance | hydrolysis score from MALDI-TOF screening (37° C.) | hydrolysis score from MALDI-TOF screening (45° C.)
17 | Ac-GASSHKKFL-NH2 [SSHK] | 4 (a score of 4 for detection at 6 hours) | 6 (a score of 6 for detection at 4 hours)
18 | Ac-GASSHLKFL-NH2 [SSHL] | 6 (a score of 6 for detection at 4 hours) | 6 (a score of 6 for detection at 4 hours)
19 | Ac-GASSHNKFL-NH2 [SSHN] | 0 (a score of 0 if no trace of the product of hydrolysis was seen after 8 hours of incubation) | 0 (a score of 0 if no trace of the product of hydrolysis was seen after 8 hours of incubation)
20 | Ac-GASSHPKFL-NH2 [SSHP] | 0 (a score of 0 if no trace of the product of hydrolysis was seen after 8 hours of incubation) | 0 (a score of 0 if no trace of the product of hydrolysis was seen after 8 hours of incubation)
21 | Ac-GASSHQKFL-NH2 [SSHQ] | 0 (a score of 0 if no trace of the product of hydrolysis was seen after 8 hours of incubation) | 0 (a score of 0 if no trace of the product of hydrolysis was seen after 8 hours of incubation)
22 | Ac-GASSHRKFL-NH2 [SSHR] | 6 (a score of 6 for detection at 4 hours) | 6 (a score of 6 for detection at 4 hours)
23 | Ac-GASSHSKFL-NH2 [SSHS] | 0 (a score of 0 if no trace of the product of hydrolysis was seen after 8 hours of incubation) | 3 (a score of 3 for detection at 8 hours)
24 | Ac-GASSHTKFL-NH2 [SSHT] | 0 (a score of 0 if no trace of the product of hydrolysis was seen after 8 hours of incubation) | 0 (a score of 0 if no trace of the product of hydrolysis was seen after 8 hours of incubation)
25 | Ac-GASSHVKFL-NH2 [SSHV] | 3 (a score of 3 for detection at 8 hours) | 4 (a score of 4 for detection at 6 hours)
26 | Ac-GASSHWKFL-NH2 [SSHW] | 6 (a score of 6 for detection at 4 hours) | 12 (a score of 12, if it was seen to be partially hydrolysed at 2 hours)
27 | Ac-GASSHYKFL-NH2 [SSHY] | 3 (a score of 3 for detection at 8 hours) | 3 (a score of 3 for detection at 8 hours)
28 | Ac-GASTHAKFL-NH2 [STHA] | 0 (a score of 0 if no trace of the product of hydrolysis was seen after 8 hours of incubation) | 0 (a score of 0 if no trace of the product of hydrolysis was seen after 8 hours of incubation)
29 | Ac-GASTHDKFL-NH2 [STHD] | 0 (a score of 0 if no trace of the product of hydrolysis was seen after 8 hours of incubation) | 0 (a score of 0 if no trace of the product of hydrolysis was seen after 8 hours of incubation)
30 | Ac-GASTHEKFL-NH2 [STHE] | 0 (a score of 0 if no trace of the product of hydrolysis was seen after 8 hours of incubation) | 0 (a score of 0 if no trace of the product of hydrolysis was seen after 8 hours of incubation)
31 | Ac-GASTHFKFL-NH2 [STHF] | 0 (a score of 0 if no trace of the product of hydrolysis was seen after 8 hours of incubation) | 3 (a score of 3 for detection at 8 hours)
32 | Ac-GASTHGKFL-NH2 [STHG] | 0 (a score of 0 if no trace of the product of hydrolysis was seen after 8 hours of incubation) | 0 (a score of 0 if no trace of the product of hydrolysis was seen after 8 hours of incubation)

Source: US8969516B2, “Method of hydrolysis of peptide bond” (priority 2006, dated 2015)
